Assay results published in publication PMC10586285 (ACS Omega, 2023).
Like-named read-outs stand apart in the source and are kept apart here.

Experiments:
COX-2 = target: T1, COX-2 (Homo sapiens, UniProt P35354); experiment: biochemical; conditions: for COX-2 selectivity: selectivity index = IC50 COX-1 / IC50 COX-2
T1 sequence (P35354 18-604): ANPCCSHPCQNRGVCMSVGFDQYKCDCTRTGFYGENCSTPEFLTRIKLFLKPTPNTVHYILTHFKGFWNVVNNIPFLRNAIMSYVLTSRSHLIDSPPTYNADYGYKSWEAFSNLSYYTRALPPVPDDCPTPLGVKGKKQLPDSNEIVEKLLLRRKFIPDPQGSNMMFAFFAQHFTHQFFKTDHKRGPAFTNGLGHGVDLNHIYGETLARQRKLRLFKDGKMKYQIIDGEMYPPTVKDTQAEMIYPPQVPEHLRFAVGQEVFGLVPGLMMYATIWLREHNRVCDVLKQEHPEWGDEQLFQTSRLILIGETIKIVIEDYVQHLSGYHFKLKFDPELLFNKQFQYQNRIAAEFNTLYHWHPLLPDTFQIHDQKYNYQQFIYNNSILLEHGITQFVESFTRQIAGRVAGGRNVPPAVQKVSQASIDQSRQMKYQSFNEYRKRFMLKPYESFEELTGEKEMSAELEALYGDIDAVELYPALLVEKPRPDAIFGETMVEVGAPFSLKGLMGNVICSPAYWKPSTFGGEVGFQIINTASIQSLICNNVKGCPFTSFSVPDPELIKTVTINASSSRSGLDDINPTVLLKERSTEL

COX-1 = COX-1 (Homo sapiens, UniProt P23219); experiment: biochemical
Hep G2 cells = experiment: Anticancer test; assay type: cell-based; conditions: for IC50: read-out: IC50 (Hep G2)
DPPH antioxidant = conditions: for IC50: read-out: IC50 (Antioxidant), DPPH assay
Caco-2 cells = experiment: Anticancer test; assay type: cell-based; conditions: for IC50: read-out: IC50 (Caco-2 Cells)
HeLa cells = experiment: Anticancer test; assay type: cell-based; conditions: for IC50: read-out: IC50 (Hela Cells)
[1] = cited from earlier work
[2] = cited from earlier work; remark: listed apart in the source
[3] = Hep G2 cells, MTS, 48 h, concentration range 100-20,000 nM
[4] = read-out: COX-2 IC50, human COX-2, ELISA kit
[5] = Caco-2 cells, MTS, 48 h, concentration range 100-20,000 nM
[6] = read-out: COX-1 IC50, human COX-1, ELISA kit

Sequence of COX-1 (P23219 24-599): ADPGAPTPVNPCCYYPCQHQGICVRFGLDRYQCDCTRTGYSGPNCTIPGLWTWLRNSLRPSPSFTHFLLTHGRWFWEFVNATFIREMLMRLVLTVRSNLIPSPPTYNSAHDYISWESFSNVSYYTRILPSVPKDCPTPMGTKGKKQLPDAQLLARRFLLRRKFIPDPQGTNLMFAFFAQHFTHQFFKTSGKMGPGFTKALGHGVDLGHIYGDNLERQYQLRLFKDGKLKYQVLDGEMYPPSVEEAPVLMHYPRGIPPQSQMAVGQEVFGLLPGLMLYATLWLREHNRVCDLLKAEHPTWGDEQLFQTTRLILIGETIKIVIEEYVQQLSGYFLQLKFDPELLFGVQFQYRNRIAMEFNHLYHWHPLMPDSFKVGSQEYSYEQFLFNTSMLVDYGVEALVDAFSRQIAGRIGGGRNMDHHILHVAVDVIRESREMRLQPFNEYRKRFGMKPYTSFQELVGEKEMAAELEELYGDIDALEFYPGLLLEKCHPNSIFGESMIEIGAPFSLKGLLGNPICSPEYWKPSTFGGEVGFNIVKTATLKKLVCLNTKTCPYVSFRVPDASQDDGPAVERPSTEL

IC50 (COX-2) [nM] | COX-2 selectivity (COX-2) | IC50 (COX-1) [nM] | Compound | percentage inhibition of DPPH (DPPH antioxidant; conc 1 μg/mL) [%] | percentage inhibition of DPPH (DPPH antioxidant; conc 2 μg/mL) [%] | percentage inhibition of DPPH (DPPH antioxidant; conc 3 μg/mL) [%] | percentage inhibition of DPPH (DPPH antioxidant; conc 5 μg/mL) [%] | percentage inhibition of DPPH (DPPH antioxidant; conc 7 μg/mL) [%] | percentage inhibition of DPPH (DPPH antioxidant; conc 10 μg/mL) [%] | percentage inhibition of DPPH (DPPH antioxidant; conc 20 μg/mL) [%] | percentage inhibition of DPPH (DPPH antioxidant; conc 30 μg/mL) [%] | percentage inhibition of DPPH (DPPH antioxidant; conc 50 μg/mL) [%] | further results
130 ± 1.71 | 0.33 | 42.4 ± 0.58 | N[C@@H](CSC1(c2ccccc2)c2ccccc2Oc2ccccc21)C(=O)O [Compound 6, S-(9-phenyl-9H-xanthen-9-yl)-L-cysteine] | 18.0 ± 1.02 | 18.0 ± 2.03 | 22.0 ± 1.01 | 28.0 ± 0.01 | 28.0 ± 0.01 | 30.0 ± 0.01 | 30.0 ± 0.01 | 30.0 ± 0.01 | 30.0 ± 0.01 | IC50 (Hep G2) (Hep G2 cells; [3]): did not exhibit any inhibition
– | – | – | N[C@@H](CSC1(Cc2ccccc2)c2ccccc2Oc2ccccc21)C(=O)O [Compound 5, S-(9-benzyl-9H-xanthen-9-yl)-L-cysteine] | 5.0 ± 0.01 | 6.0 ± 0.02 | 7.0 ± 0.01 | 7.0 ± 0.51 | 7.0 ± 0.67 | 7.0 ± 0.35 | 11.4 ± 1.01 | 11.4 ± 2.10 | 12.0 ± 1.33 | –
– | – | – | Cc1c(C)c2c(c(C)c1O)CCC(C)(C(=O)O)O2 (stereo not drawn) [Trolox, reference compound] | 37 ± 2.21 | 54 ± 3.42 | 81 ± 4.25 | 86 ± 5.33 | 91 ± 7.52 | 92 ± 10.71 | 93 ± 13.90 | 94 ± 10.89 | 94.5 ± 12.64 | IC50 (DPPH antioxidant): 6070 ± 800 nM
– | – | – | 9-Phenyl-9H-xanthen-9-ol [Compound 4] | 10 ± 0.01 | 16.0 ± 0.02 | 27.0 ± 0.01 | 33.0 ± 1.21 | 33.0 ± 2.13 | 35.0 ± 2.31 | 35.0 ± 3.31 | 39.0 ± 5.51 | 39.4 ± 2.44 | IC50 (COX-2; [4]): 14 ± 1.7 nM; percentage inhibition against Caco-2 cells (Caco-2 cells; at 0.2 μM): 98%; IC50 (Caco-2 cells; [5]): 24.6 ± 8 nM; inhibition against HeLa cells (HeLa cells; at 0.2 μM): 98%; IC50 (COX-1; [6]): 6.52 ± 0.85 nM; inhibition against Hep G2 cells (Hep G2 cells; at 0.2 μM): 100%; IC50 (Hep G2 cells; [3]): 400 ± 56 nM; IC50 (DPPH antioxidant): 15400 ± 6000 nM
– | – | – | COc1cccc2c1C(=O)c1c(O)c3c(c(O)c1C2=O)C[C@@](O)(C(=O)CO)C[C@@H]3O[C@H]1C[C@H](N)[C@H](O)[C@H](C)O1 [doxorubicin, reference compound] | – | – | – | – | – | – | – | – | – | IC50 (Caco-2 cells; Homo sapiens, Caco-2, 48 h): 497 ± 0.36 nM; IC50 (HeLa cells; Homo sapiens, HeLa, 48 h): 110 ± 15 nM; IC50 (Hep G2 cells; Homo sapiens, HepG2, 48 h): 1060 ± 43 nM
– | – | – | N[C@@H](CSC(c1ccccc1)(c1ccccc1)c1ccccc1)C(=O)O [STLC, S-trityl-L-cysteine] | – | – | – | – | – | – | – | – | – | permeability [1]: poor; water solubility [2]: poor
– | – | – | OC1(Cc2ccccc2)c2ccccc2Oc2ccccc21 [Compound 1, 9-Benzyl-9H-xanthen-9-ol] | 0.31 ± 0.02 | 0.36 ± 0.02 | 0.36 ± 0.01 | 0.31 ± 0.01 | 36.40 ± 4.11 | 36.40 ± 3.31 | 40.20 ± 5.21 | 35.50 ± 1.01 | 35.10 ± 3.31 | inhibition at 0.2 µM (Caco-2 cells; Homo sapiens, Caco-2, read-out: percentage inhibition against Caco-2 cells): 96%; IC50 (HeLa cells; Homo sapiens, HeLa, 48 h): 213 nM; inhibition at 0.2 µM (HeLa cells; Homo sapiens, HeLa, read-out: inhibition against HeLa cells): 96%
7.2 ± 0.58 | 0.78 | 5.63 ± 0.74 | OC1(Cc2ccccc2)c2ccccc2Sc2ccccc21 [Compound 2, 9-Benzyl-9H-thioxanthen-9-ol] | 0.26 ± 0.01 | 0.26 ± 0.03 | 0.33 ± 0.04 | 0.33 ± 0.01 | 26.00 ± 7.20 | 27.00 ± 1.03 | 28.00 ± 2.14 | 29.00 ± 1.15 | 32.00 ± 3.75 | IC50 (Hep G2 cells; Homo sapiens, HepG2, 48 h): 161 ± 41 nM; inhibition at 0.2 µM (Hep G2 cells; Homo sapiens, HepG2, read-out: inhibition against Hep G2 cells): 100%
– | 1.67 | – | 9-Phenyl-9H-thioxanthen-9-ol [Compound 3] | 0.14 ± 0.02 | 0.15 ± 0.01 | 0.15 ± 0.03 | 0.29 ± 0.01 | 18.20 ± 1.40 | 18.00 ± 2.37 | 15.60 ± 2.01 | 19.90 ± 1.0 | 20.00 ± 3.12 | IC50 (COX-2; [4]): 7.69 ± 0.55 nM; IC50 (Caco-2 cells; [5]): 9.6 ± 1.1 nM; IC50 (COX-1; [6]): 12.8 ± 0.63 nM; IC50 (Hep G2 cells; [3]): 438 ± 33 nM
4.37 ± 0.78 | – | 16.7 ± 0.84 | N[C@@H](CSC1(c2ccccc2)c2ccccc2Sc2ccccc21)C(=O)O [Compound 7, S-(9-phenyl-9H-thioxanthen-9-yl)-L-cysteine] | 22.0 ± 3.31 | 22.0 ± 3.11 | 22.0 ± 2.22 | 29.0 ± 4.22 | 22.0 ± 1.22 | 26.0 ± 3.44 | 23.0 ± 1.11 | 23.0 ± 1.21 | 23.0 ± 3.10 | COX-2 selectivity (COX-2; listed as comp (7)): 3.78; IC50 (Hela Cells) (HeLa cells; HeLa cells, MTS, 48 h, concentration range 100-20,000 nM): no activity; IC50 (Hep G2) (Hep G2 cells; [3]): did not exhibit any inhibition
